Usually Ki stands for the equilibrium dissociation constant of an inhibitor or competing ligand from its target. A low value points to tighter binding.

The record followed here is ChEMBL document CHEMBL1130508, “Synthesis of 7-membered cyclic hydroxyguanidines: Novel HIV-1 protease inhibitors” (Bioorg Med Chem Lett, 1997).

For this experiment, the target named is Human immunodeficiency virus type 1 protease (Human immunodeficiency virus 1, UniProt Q72874). Put plainly: The compound was evaluated for its inhibition constant against HIV-1 protease (HIV PR).

`ON=C1N(Cc2ccccc2)[C@H](Cc2ccccc2)[C@H](O)[C@@H](O)[C@@H](Cc2ccccc2)N1Cc1ccccc1` displayed a Ki of 42 nM.

`O[C@@H]1[C@@H](O)[C@@H](Cc2ccccc2)N(Cc2ccccc2)C(=NOCc2ccccc2)N(Cc2ccccc2)[C@@H]1Cc1ccccc1` showed a Ki of 3000 nM.
